These results are taken from PubChem BioAssay (NCI).

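Step 1: Grow cells in 96-well plates. Step 2: Expose to compound for 48 hours at 5 concentrations. Step 3: Interpolate endpoints linearly; if unreached, use highest concentration. At the TGI there is no net growth.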

Among the test systems are DLD-1 colon; DMS 114 small cell lung; SNB-19 CNS; A549 NSCLC; KM12 colon; ACHN renal; K-562 leukemia; HCC-2998 colon; NCI-H522 lung; M19-MEL melanoma; KM20L2 colon; MDA-N; BT-549 breast.
What all share (assay): growth of human tumour cells (NCI), 48 h

On to `Cc1cc([N+](=O)[O-])c(S(=O)(=O)c2ccccc2)c([N+](=O)[O-])c1`, for which the TGI in the assay with DLD-1 colon worked out at 17 µM; in the assay on DMS 114 small cell lung, 9.63 µM; in the assay with SNB-19 CNS, 32.9 µM; in the assay with A549 NSCLC, 41.3 µM; in the assay on KM12 colon, 32.1 µM; in the assay with ACHN renal, 33.4 µM. Besides, the TGI was greater than 100 µM in the assay with K-562 leukemia; 35.7 µM with HCC-2998 colon; 3.14 µM in the assay with NCI-H522 lung; 26.3 µM with M19-MEL melanoma; 37.3 µM in the assay on KM20L2 colon.

For the compound `CC(c1ccccc1)N1CC(C)(c2ccccc2)N(O)C(c2ccccc2)C1C` (stereo not given), the TGI in the assay on DLD-1 colon is greater than 100 µM; in the assay on DMS 114 small cell lung, 45.1 µM; with SNB-19 CNS it was greater than 100 µM; in the assay on A549 NSCLC it was 37.8 µM; in the assay with KM12 colon, greater than 100 µM; with ACHN renal, 45.4 µM. For the same compound, the TGI is greater than 100 µM with K-562 leukemia, 36.9 µM with HCC-2998 colon, 32.3 µM with NCI-H522 lung and 44.7 µM with KM20L2 colon.

With `Nc1c(N=Nc2ccc(-c3ccc(N=Nc4c(O)ccc5cc(S(=O)(=O)O)cc(S(=O)(=O)O)c45)cc3)cc2)c(S(=O)(=O)O)cc2cc(S(=O)(=O)O)c(N=Nc3ccccc3)c(O)c12`, the TGI with DLD-1 colon, with DMS 114 small cell lung, in the assay with SNB-19 CNS, with A549 NSCLC, in the assay on KM12 colon and with K-562 leukemia was greater than 100 µM throughout. Also, the TGI with HCC-2998 colon, with NCI-H522 lung and with M19-MEL melanoma was greater than 100 µM throughout.

In the case of `COc1cc2cccc(N=Cc3c(Br)ccc(OC)c3OC(C)C)c2cc1OC`, the TGI was 82.2 µM in the assay on DLD-1 colon; 63.5 µM in the assay with DMS 114 small cell lung; greater than 100 µM in the assay with SNB-19 CNS; greater than 100 µM in the assay with A549 NSCLC; greater than 100 µM with KM12 colon; greater than 100 µM with ACHN renal. In addition, the TGI with K-562 leukemia was 92.9 µM; in the assay on HCC-2998 colon, greater than 100 µM; in the assay with NCI-H522 lung, greater than 100 µM; with M19-MEL melanoma it was greater than 100 µM; with KM20L2 colon, greater than 100 µM.

Take `CC(=O)NC1=C(NCC(C)C)C(=O)c2ccccc2C1=O`: the TGI in the assay with DLD-1 colon was 40.1 µM; in the assay with DMS 114 small cell lung it was 31.7 µM; with SNB-19 CNS it was greater than 100 µM; in the assay on A549 NSCLC, greater than 100 µM; in the assay on KM12 colon it was greater than 100 µM; in the assay with ACHN renal, greater than 100 µM. In addition, the TGI with K-562 leukemia is 36.7 µM; with HCC-2998 colon, greater than 100 µM; with M19-MEL melanoma, 34.2 µM; in the assay on KM20L2 colon it was 43.9 µM.

On to `OC12CCCCCC1(N1CCOCC1)c1ccccc12` (stereo not given), for which the TGI in the assay with DMS 114 small cell lung, in the assay with SNB-19 CNS, with A549 NSCLC, in the assay with KM12 colon, with ACHN renal and with K-562 leukemia was greater than 100 µM each time. For the same compound, the TGI in the assay with HCC-2998 colon, with NCI-H522 lung, with M19-MEL melanoma and in the assay on KM20L2 colon was greater than 100 µM throughout.

As to `CCN(CC)CCCCC1CCN(CC(=O)N2c3ccccc3NC(=O)CC2C)CC1` (stereo not given), the TGI in the assay with DMS 114 small cell lung, in the assay with SNB-19 CNS, with A549 NSCLC, with KM12 colon, in the assay on ACHN renal and in the assay on K-562 leukemia was greater than 100 µM each time. The TGI in the assay with HCC-2998 colon, in the assay on NCI-H522 lung, with M19-MEL melanoma and in the assay with KM20L2 colon was greater than 100 µM throughout.

As to `COC(=O)CC(NC(=O)OCc1ccccc1)C(C(=O)OCc1ccccc1)C1(C)OCCO1` (stereo not given), the TGI in the assay on DLD-1 colon was greater than 100 µM; in the assay on DMS 114 small cell lung, 82.6 µM; in the assay on SNB-19 CNS, greater than 100 µM; in the assay on A549 NSCLC it was greater than 100 µM; with ACHN renal, greater than 100 µM; in the assay with K-562 leukemia, greater than 100 µM. Further, the TGI in the assay on HCC-2998 colon, in the assay with M19-MEL melanoma and in the assay on KM20L2 colon was greater than 100 µM throughout.

As for `Cc1cc2occ(-c3ccc(Cl)cc3)c2c(=O)o1`, the TGI in the assay on DLD-1 colon, in the assay on DMS 114 small cell lung, in the assay on SNB-19 CNS, with A549 NSCLC, in the assay with KM12 colon and in the assay on ACHN renal was greater than 100 µM each time. In addition, the TGI in the assay on K-562 leukemia, in the assay with NCI-H522 lung and in the assay on KM20L2 colon was greater than 100 µM each time.

Regarding `O=C(OCc1ccccc1C1CSCSC1)c1cc(C(=O)OCc2ccccc2C2CSCSC2)c(C(=O)OCc2ccccc2C2CSCSC2)cc1C(=O)OCc1ccccc1C1CSCSC1`, the TGI with DLD-1 colon, in the assay with DMS 114 small cell lung, in the assay with A549 NSCLC, in the assay on KM12 colon, with ACHN renal and in the assay with K-562 leukemia was greater than 100 µM in each case. For the same compound, the TGI in the assay on NCI-H522 lung, with M19-MEL melanoma and with KM20L2 colon was greater than 100 µM in each case.

Consider `O=c1c2c(nc3n1CCC3)sc1c(O)c(Br)ccc12`, for which the TGI in the assay on DLD-1 colon was greater than 100 µM; with DMS 114 small cell lung, 32.4 µM; in the assay on SNB-19 CNS, greater than 100 µM; in the assay on A549 NSCLC, 29.9 µM; in the assay with KM12 colon, 29.7 µM; in the assay with ACHN renal, 35.8 µM. The TGI in the assay with K-562 leukemia was determined as 59.2 µM; in the assay on HCC-2998 colon it was 38 µM; in the assay on NCI-H522 lung, 37.9 µM; in the assay with M19-MEL melanoma, 32.8 µM; in the assay on KM20L2 colon it was 35.9 µM.

Turning to `C/C(=N\Nc1ccccc1)C(CN(C)C)C(c1ccccc1)c1c(O)c2ccccc2oc1=O` (stereo not given), the TGI with DMS 114 small cell lung, in the assay with SNB-19 CNS, with A549 NSCLC, with KM12 colon, in the assay with ACHN renal and in the assay with K-562 leukemia was greater than 100 µM in each case. The TGI in the assay on HCC-2998 colon, with MDA-N, with NCI-H522 lung, in the assay on M19-MEL melanoma, in the assay with BT-549 breast and in the assay with KM20L2 colon was greater than 100 µM throughout.

As for `CCOC1=C2NC(Cc3ccc(F)cc3)=NC2C(=O)c2ccccc21` (stereo not given), the TGI with DLD-1 colon is greater than 100 µM; in the assay on DMS 114 small cell lung, 61.9 µM; in the assay with KM12 colon it was greater than 100 µM; with ACHN renal, greater than 100 µM; in the assay on K-562 leukemia, greater than 100 µM; in the assay with HCC-2998 colon it was greater than 100 µM. Moreover, the figures for the TGI in the assay with NCI-H522 lung, in the assay with M19-MEL melanoma and with KM20L2 colon were 46.1 µM, 39.5 µM and greater than 100 µM, respectively.
